Read-outs that look alike come from different tables or passages of the source.
Experiments:
human β3-AR = target: T1, human β3-AR (Homo sapiens, UniProt P13945); test: cAMP accumulation (SPA) in CHO cells transfected with human β3 adrenergic receptor; assay type: cell-based; settings: for Emax: read-out: IA(β3)
T1 construct: Full length β3 AR clones (402 amino acids) containing the last 6 amino acids of hβ3; expressed in transfected cells; host or cells: CHO (Chinese hamster ovary) cells
Protocol: The ability of compounds of this invention to treat or inhibit disorders related to insulin resistance or hyperglycemia was established with representative compounds of this invention in the following standard pharmacological test procedures, which measured the binding selectivity to the β1, β2, and β3 adrenergic receptors. Binding to the receptors was measured in Chinese Hamster ovary (CHO) cells that were transfected with adrenergic receptors. The following briefly summarizes the procedures used and results obtained.
Cloning of Human β3-AR Genomic DNA: cDNA was constructed by ligating four polymerase chain reaction (PCR) products using the following primers: an ATG-Narl fragment, sense primer 5′-[…]3′ and anti-sense primer 5′[…]3′; a Narl-Accl fragment, 5′[…]3′ as sense and 5′[…]3′ as anti-sense primer; an Accli-Styl fragment, sense primer 5′[…]3′ and anti-sense primer 5′[…]3′ and a Styl-TAG fragment, with sense primer 5′[…]3′ and anti-sense primer 5′[…]3′. The corresponding primer sequences are described in Mantzoros, C. S., etal, Diabetes 45: 909-914 (1996). The four fragments are ligated into a pUC 18 plasmid (Gibco-BRL) and sequenced. Full length β3 AR clones (402 amino acids) containing the last 6 amino acids of hβ3 . . . AR are prepared with the β3-βARpcDNA3 from ATTC.
Binding Procedure: Clones expressing receptor levels of 70 to 110 fmoles/mg protein were used in the test procedures. CHO cells were grown in 24-well tissue culture plates in Dulbecco's Modified Eagle Media with 10% fetal bovine serum, MEM non-essential amino acids, Penicillin-Streptompycin and Geneticin. On the day of test procedure, growth medium was replaced with preincubation media (Dulbecco's Modified Eagle Media and incubated for 30 minutes at 37° C. Preincubation medium was replaced with 0.2 ml treatment medium containing DMEM media containing 250 μM IBMX (isobutyl-1-methylxantine) plus 1 mM ascorbic acid with test compound dissolved in DMSO. Test compounds were tested over a concentration range of 10^−9 M to 10^−5 M for β3 cells and 10^″8 to 10^″4 M for β1 and β2 transfected cells. Isoproterenol (10^−5 M) was used as an internal standard for comparison of activity. Cells were incubated at 37° C. on a rocker for 30 min with the β3 cells and 15 min for β1 and β2 cells. Incubation was stopped with the addition of 0.2 N HCI and neutralized with 2.5 N NaOH. The plates, containing the cells and neutralized media, were stored at −20 degrees celsius until ready to test for cAMP using the SPA test kit (Amersham).
Data Analysis and Results: Data collected from the SPA test procedure were analyzed as percent of the maximal isoproterenol response at 10^−5 M. Activity curves were plotted using the SAS statistical and graphics software. EC50 values were generated for each compound and the maximal response (IA) developed for each compound is compared to the maximal response of isoproternol at 10^−5 M from the following formula: [formula]

[1] = CHO cells expressing human β3-AR, cAMP, 30 min at 37° C., 10^-9 M to 10^-5 M, read-out: EC50(β3)
[2] = maximal response compared to the maximal response of isoproterenol at 10^-5 M, CHO cells expressing human β3-AR

T1 sequence (P13945 whole entry): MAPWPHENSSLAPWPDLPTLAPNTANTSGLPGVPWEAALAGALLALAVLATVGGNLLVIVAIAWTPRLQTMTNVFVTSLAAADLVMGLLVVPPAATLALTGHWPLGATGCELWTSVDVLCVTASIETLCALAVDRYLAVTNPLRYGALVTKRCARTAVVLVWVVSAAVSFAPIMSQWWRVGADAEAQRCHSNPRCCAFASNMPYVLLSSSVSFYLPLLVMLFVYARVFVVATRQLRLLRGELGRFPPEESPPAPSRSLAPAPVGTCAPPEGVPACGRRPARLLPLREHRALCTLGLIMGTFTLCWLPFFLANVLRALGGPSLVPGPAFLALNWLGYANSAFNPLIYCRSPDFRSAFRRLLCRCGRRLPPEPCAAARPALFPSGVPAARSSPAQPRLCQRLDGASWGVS

melting point | EC50 (human β3-AR; [1]) | Emax (human β3-AR; [2]) | SMILES | EC50 (human β3-AR) | Emax (human β3-AR; CHO)
46 to 48 °C | – | – | O=C1NC(=O)C(Nc2ccc(CCNC[C@@H](O)c3cccnc3)cc2)S1 (some centres unmarked) (hydrate or solvate) [Example 30, 5-{4-[2-((2 S)-2-Hydroxy-2-pyridin-3-yl-ethylamino)-ethyl]-phenylamino}-thiazolidine-2,4-dione] | – | –
65 to 67 °C | – | – | O=C1NC(=O)C(Nc2ccc(CCNC[C@H](O)c3cccnc3)cc2)S1 (some centres unmarked) (hydrate or solvate) [Example 31, 5-{4-[2-((2 R)-2-Hydroxy-2-pyridin-3-yl-ethylamino)-ethyl]-phenylamino}-thiazolidine-2,4-dione] | – | –
129 to 131 °C | – | – | CN1C(=O)SC(Nc2ccc(CCNC[C@H](O)c3cccc(Cl)c3)cc2)C1=O (some centres unmarked) [Example 3, 5-[4-(2-{[(2 R)-2-(3-Chlorophenyl)-2-hydroxyethyl]amino}ethyl)anilino]-3-methyl-1,3-thiazolidine-2,4-dione] | – | –
152 °C | 1 nM | 85% | O=C1NC(=O)C(Nc2ccc(CCNC[C@H](O)COc3ccc(OCc4ccccc4)cc3)cc2)S1 (some centres unmarked) [Example 4, 5-{4-[2-({(2 S)-3-[4-(Benzyloxy)phenoxy]-2-hydroxypropyl}amino)ethyl]anilino}-1,3-thiazolidine-2,4-dione] | – | –
165 °C | 20 nM | 99% | O=C1NC(=O)C(Nc2ccc(CCNC[C@H](O)COc3ccc(O)cc3)cc2)S1 (some centres unmarked) [Example 5, 5-[4-(2-{[(2 S)-2-Hydroxy-3-(4-hydroxyphenoxy)propyl]amino}ethyl)anilino]-1,3-thiazolidine-2,4-dione] | – | –
162 °C | 7 nM | 83% | O=C1NC(=O)C(Nc2ccc(CCNC[C@H](O)c3cccc(Cl)c3)cc2)S1 (some centres unmarked) [Example 6, 5-[4-(2-{[(2 R)-2-(3-Chlorophenyl)-2-hydroxy-ethyl]amino}ethyl)anilino]-1,3-thiazolidine-2,4-dione] | – | –
– | 83 nM | 94% | O=C1NC(=O)C(Nc2ccc(CCNC[C@H](O)c3ccccc3)cc2)S1 (some centres unmarked) [Example 7, 5-[4-(2-{[(2 R)-2-Hydroxy-2-phenylethyl]amino}ethyl)anilino]-1,3-thiazolidine-2,4-dione] | – | –
– | 14 nM | 66% | O=C1NC(=O)C(Nc2ccc(CCNC[C@H](O)COc3ccc(F)cc3)cc2)S1 (some centres unmarked) [Example 8, 5-[4-(2-{[(2 S)-3-(4-Fluorophenoxy)-2-hydroxypropyl]amino}ethyl)anilino]-1,3-thiazolidine-2,4-dione] | – | –
– | 0.9 nM | 98% | O=C1NC(=O)C(Nc2ccc(CCNC[C@H](O)COc3ccccc3)cc2)S1 (some centres unmarked) [Example 9, 5-[4-(2-{[(2 S)-2-Hydroxy-3-phenoxypropyl]amino}ethyl)anilino]-1,3-thiazolidine-2,4-dione] | – | –
– | 3 nM | 117% | O=C1NC(=O)C(Nc2ccc(CCNC[C@H](O)COc3cccc(O)c3)cc2)S1 (some centres unmarked) [Example 12, 5-[4-(2-{[(2 S)-2-Hydroxy-3-(3-hydroxyphenoxy)propyl]amino}ethyl)anilino]-1,3-thiazolidine-2,4-dione] | – | –
– | 12 nM | 104% | O=C1NC(=O)C(Nc2ccc(CCNC[C@H](O)COc3cccc4[nH]c5ccccc5c34)cc2)S1 (some centres unmarked) [Example 13, 5-[4-(2-{[(2 S)-3-(9 H-Carbazol-4-yloxy)-2-hydroxypropyl]amino}ethyl)anilino]-1 ,3-thiazolidine-2,4-dione] | – | –
– | 9 nM | 111% | CS(=O)(=O)Nc1cc([C@H](O)CNCCc2ccc(NC3SC(=O)NC3=O)cc2)ccc1O (some centres unmarked) [Example 14, N{5-[(1 S)-2-({4-[(2,4-Dioxo-1,3-thiazolidin-5-yl)amino]phenethyl}amino)-1-hydroxyethyl]-2-hydroxyphenyl}methanesulfonamide] | – | –
– | 17 nM | 68% | CN(c1ccc(CCNC[C@H](O)COc2ccccc2)cc1)C1SC(=O)NC1=O (some centres unmarked) [Example 17, 5-[4-(2-{[(2 S)-2-Hydroxy-3-phenoxypropyl]amino}ethyl)(methyl)anilino]-1,3-thiazolidine-2,4-dione.] | – | –
– | – | – | CC(Cc1ccc(NC2SC(=O)NC2=O)cc1)NC[C@H](O)c1cccc(Cl)c1 (some centres unmarked) [Example 18, 5-[4-(2-{[(2 R)-2-(3-Chlorophenyl)-2-hydroxyethyl]amino}propyl)anilino]-1,3-thiazolidine-2,4-dione] | 9 nM | 89%
– | 20 nM | 71% | O=C1NC(=O)C(Nc2ccc(CCNC[C@@H](O)COc3cccc4[nH]c(=O)[nH]c34)cc2)S1 (some centres unmarked) [Example 19, 5-{4-[2-({(2 R)-2-Hydroxy-3-[(2-oxo-2,3-di hydro-1 H-benzimidazol-4-yl)oxy]propyl}amino)ethyl]anilino}-1,3-thiazolidine-2,4-dione] | – | –
70 to 71 °C | – | – | O=C1NC(=O)C(Nc2ccc(CCNC[C@H](O)COc3ccc(-c4ccccc4)cc3)cc2)S1 (some centres unmarked) [Example 22, 5-(4-{2-[(2 S)-3-(Biphenyl-4-yloxy)-2-hydroxy-propylamino]-ethyl}-phenylamino)-thiazolidine-2,4-dione] | – | –
– | 3 nM | 109% | O=C1NC(=O)C(N(Cc2ccc(Br)cc2)c2ccc(CCNC[C@H](O)COc3ccccc3)cc2)S1 (some centres unmarked) [Example 29, 5-((4-Bromo-benzyl)-{4-[2-((2 S)-2-hydroxy-3-phenoxy-propylamino)-ethyl]-phenyl}-amino)-thiazolidine-2,4-dione] | – | –
– | 96 nM | 88% | O=C1NC(=O)C(Nc2ccc(CCNC[C@H](O)c3cccnc3)cc2)S1 (some centres unmarked) [Example 31, 5-{4-[2-((2 R)-2-Hydroxy-2-pyridin-3-yl-ethylamino)-ethyl]-phenylamino}-thiazolidine-2,4-dione] | – | –

Source: patent publication US6465501B2, “Azolidines as β3 adrenergic receptor agonists” (Wyeth, priority 2000, dated 2002)
